Reference: PubChem BioAssay AID220 (DTP/NCI, 2004)
Several values for one entry are separate records, joined by “and”; a condition that tells them apart may be missing. Equal entries are not always repeated. Inconclusive results are not listed.

Test system: CD8F1 mice, subcutaneous mammary adenocarcinoma, T/C%
Experiment: NCI In Vivo Anticancer Drug Screen. Data for tumor model Mammary Adenocarcinoma CD8F1 (subcutaneous) in CD8F1
Settings: higher = larger tumour
In short: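 Transplantable tumors were established in mice, animals were dosed with compound or vehicle, and survival or tumor size was then measured in both groups. The treated result was divided by the control result.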

CCc1ccccc1N1CCN(C(=O)c2cc(OC)c(OC)c(OC)c2)CC1
T/C (endpoint: median tumor weight (est.), dose: 12.5 mg/kg/injection, schedule: Q07DX003 (ip), vehicle: Klucel (hydroxypropylcellulose) (HPC)): 68 % of control
T/C (endpoint: median tumor weight (est.), dose: 12.5 mg/kg/injection, schedule: Q07DX004 (ip), vehicle: Klucel (hydroxypropylcellulose) (HPC)): 50 % of control
T/C (endpoint: median tumor weight (est.), dose: 50.0 mg/kg/injection, schedule: Q04DX005 (ip), vehicle: Klucel (hydroxypropylcellulose) (HPC)): 167 % of control and 269 % of control
T/C (endpoint: median tumor weight (est.), dose: 50.0 mg/kg/injection, schedule: Q07DX003 (ip), vehicle: Klucel (hydroxypropylcellulose) (HPC)): 182 % of control
T/C (endpoint: median tumor weight (est.), dose: 100.0 mg/kg/injection, schedule: Q04DX005 (ip), vehicle: Klucel (hydroxypropylcellulose) (HPC)): 152 % of control and 206 % of control
T/C (endpoint: median tumor weight (est.), dose: 100.0 mg/kg/injection, schedule: Q07DX003 (ip), vehicle: Klucel (hydroxypropylcellulose) (HPC)): 112 % of control
T/C (endpoint: median tumor weight (est.), dose: 100.0 mg/kg/injection, schedule: Q07DX004 (ip), vehicle: Klucel (hydroxypropylcellulose) (HPC)): 274 % of control
T/C (endpoint: median tumor weight (est.), dose: 200.0 mg/kg/injection, schedule: Q07DX003 (ip), vehicle: Klucel (hydroxypropylcellulose) (HPC)): 111 % of control
T/C (endpoint: median tumor weight (est.), dose: 400.0 mg/kg/injection, schedule: Q04DX005 (ip), vehicle: Klucel (hydroxypropylcellulose) (HPC)): 44 % of control
T/C (endpoint: median tumor weight (est.), dose: 400.0 mg/kg/injection, schedule: Q07DX003 (ip), vehicle: Klucel (hydroxypropylcellulose) (HPC)): 36 % of control

S=c1nc[nH]c2nc[nH]c12
T/C (endpoint: mean tumor weight (est.), dose: 135.0 mg/kg/injection, schedule: Q07DX005 (ip), vehicle: sodium bicarbonate): 42 % of control
T/C (endpoint: mean tumor weight, dose: 15.0 mg/kg/injection, schedule: Q01DX009 (ip), vehicle: saline): 16 % of control
T/C (endpoint: mean tumor weight, dose: 30.0 mg/kg/injection, schedule: Q01DX009 (ip), vehicle: saline): 5 % of control
T/C (endpoint: mean tumor weight, dose: 35.0 mg/kg/injection, schedule: Q07DX007 (ip), vehicle: saline): 98 % of control
T/C (endpoint: mean tumor weight, dose: 60.0 mg/kg/injection, schedule: Q01DX009 (ip), vehicle: saline): 14 % of control
T/C (endpoint: mean tumor weight, dose: 67.5 mg/kg/injection, schedule: Q07DX005 (ip), vehicle: saline): 57 % of control
T/C (endpoint: mean tumor weight, dose: 67.5 mg/kg/injection, schedule: Q07DX006 (ip), vehicle: sodium bicarbonate): 49 % of control
T/C (endpoint: mean tumor weight, dose: 67.5 mg/kg/injection, schedule: Q07DX007 (ip), vehicle: saline): 81 % of control
T/C (endpoint: mean tumor weight, dose: 135.0 mg/kg/injection, schedule: Q07DX005 (ip), vehicle: saline): 37 % of control
T/C (endpoint: median tumor weight (est.), dose: 4.0 mg/kg/injection, schedule: Q07DX005 (ip), vehicle: saline): 73 % of control
T/C (endpoint: median tumor weight (est.), dose: 6.25 mg/kg/injection, schedule: Q07DX005 (ip), vehicle: Klucel (hydroxypropylcellulose) (HPC)): 78 % of control
T/C (endpoint: median tumor weight (est.), dose: 8.0 mg/kg/injection, schedule: Q07DX005 (ip), vehicle: saline): 78 % of control
T/C (endpoint: median tumor weight (est.), dose: 16.0 mg/kg/injection, schedule: Q07DX005 (ip), vehicle: saline): 350 % of control
T/C (endpoint: median tumor weight (est.), dose: 25.0 mg/kg/injection, schedule: Q07DX005 (ip), vehicle: Klucel (hydroxypropylcellulose) (HPC)): 80 % of control
T/C (endpoint: median tumor weight (est.), dose: 32.0 mg/kg/injection, schedule: Q07DX005 (ip), vehicle: saline): 78 % of control
T/C (endpoint: median tumor weight (est.), dose: 50.0 mg/kg/injection, schedule: Q07DX005 (ip), vehicle: Klucel (hydroxypropylcellulose) (HPC)): 48 % of control
T/C (endpoint: median tumor weight (est.), dose: 64.0 mg/kg/injection, schedule: Q07DX005 (ip), vehicle: saline): 101 % of control
T/C (endpoint: median tumor weight (est.), dose: 100.0 mg/kg/injection, schedule: Q07DX005 (ip), vehicle: Klucel (hydroxypropylcellulose) (HPC)): 17 % of control
T/C (endpoint: median tumor weight (est.), dose: 128.0 mg/kg/injection, schedule: Q07DX005 (ip), vehicle: saline): 28 % of control

CN=C(N)N/N=C(\c1ccccc1)c1ccc(Br)cc1
T/C (endpoint: median tumor weight change, dose: 15.6 mg/kg/injection, schedule: Q01DX001 (ip), vehicle: saline with Tween-80): 71 % of control
T/C (endpoint: median tumor weight change, dose: 31.25 mg/kg/injection, schedule: Q01DX001 (ip), vehicle: saline with Tween-80): 56 % of control
T/C (endpoint: median tumor weight change, dose: 62.5 mg/kg/injection, schedule: Q01DX001 (ip), vehicle: saline with Tween-80): 55 % of control
